Experimental data taken from PubChem BioAssay AID1963450 (Molecular Pharmacology Branch, DTP, NCI, 2024).

Tested on: 556581-035-R-J1-PDC complex spheroid growth
Experiment: Anticancer human tumor 556581-035-R-J1-PDC patient-derived ovarian carcinoma cell line growth inhibition [Asc]
Conditions: for IC50: curve of first compound; for viability, T/C: stronger effect = lower value
Procedure, shortened: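 Concentration series start at each agent's clinical Cmax, or at 10 microM when none is established, and drop in half-log steps; agents are applied alone or together to complex spheroids built with HUVEC and hMSC.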
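Also: spheroids exposed to agents for 7 days before viability read.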

## CCN1CCN(Cc2ccc(Nc3ncc(F)c(-c4cc(F)c5nc(C)n(C(C)C)c5c4)n3)nc2)CC1 + CCN1C(C(=O)NC23CCC(C(=O)O)(CC2)CC3)C(c2cccc(Cl)c2F)C2(C(=O)Nc3cc(Cl)ccc32)C12CCCCC2
Second compound 0.03 µM
  IC50: > 1 µM
Second compound 0.0949 µM
  IC50: > 1 µM
Second compound 0.3 µM
  IC50: > 1 µM
Second compound 0.949 µM
  IC50: > 1 µM
Second compound 3 µM
  IC50: > 1 µM
Second compound 0.03 µM, first compound 0.00316 µM
  viability, T/C: 91.6%
Second compound 0.03 µM, first compound 0.01 µM
  viability, T/C: 84.4%
Second compound 0.03 µM, first compound 0.0316 µM
  viability, T/C: 94%
Second compound 0.03 µM, first compound 0.1 µM
  viability, T/C: 81.8%
Second compound 0.03 µM, first compound 0.316 µM
  viability, T/C: 102%
Second compound 0.03 µM, first compound 1 µM
  viability, T/C: 88%
Second compound 0.0949 µM, first compound 0.00316 µM
  viability, T/C: 107%
Second compound 0.0949 µM, first compound 0.01 µM
  viability, T/C: 98%
Second compound 0.0949 µM, first compound 0.0316 µM
  viability, T/C: 95.2%
Second compound 0.0949 µM, first compound 0.1 µM
  viability, T/C: 106%
Second compound 0.0949 µM, first compound 0.316 µM
  viability, T/C: 98.2%
Second compound 0.0949 µM, first compound 1 µM
  viability, T/C: 87.2%
Second compound 0.3 µM, first compound 0.00316 µM
  viability, T/C: 102%
Second compound 0.3 µM, first compound 0.01 µM
  viability, T/C: 82.5%
Second compound 0.3 µM, first compound 0.0316 µM
  viability, T/C: 96.8%
Second compound 0.3 µM, first compound 0.1 µM
  viability, T/C: 99.7%
Second compound 0.3 µM, first compound 0.316 µM
  viability, T/C: 92.3%
Second compound 0.3 µM, first compound 1 µM
  viability, T/C: 88.4%
Second compound 0.949 µM, first compound 0.00316 µM
  viability, T/C: 84.9%
Second compound 0.949 µM, first compound 0.01 µM
  viability, T/C: 88.5%
Second compound 0.949 µM, first compound 0.0316 µM
  viability, T/C: 92.9%
Second compound 0.949 µM, first compound 0.1 µM
  viability, T/C: 92.9%
Second compound 0.949 µM, first compound 0.316 µM
  viability, T/C: 81.1%
Second compound 0.949 µM, first compound 1 µM
  viability, T/C: 91.6%
Second compound 3 µM, first compound 0.00316 µM
  viability, T/C: 81.7%
Second compound 3 µM, first compound 0.01 µM
  viability, T/C: 83.3%
Second compound 3 µM, first compound 0.0316 µM
  viability, T/C: 82.6%
Second compound 3 µM, first compound 0.1 µM
  viability, T/C: 83.5%
Second compound 3 µM, first compound 0.316 µM
  viability, T/C: 87.2%
Second compound 3 µM, first compound 1 µM
  viability, T/C: 86.2%

## Cc1nc(N2CCC3(CC2)COC(C)C3N)c(CO)nc1Sc1ccnc(N)c1Cl (stereo not given) + CCN1C(C(=O)NC23CCC(C(=O)O)(CC2)CC3)C(c2cccc(Cl)c2F)C2(C(=O)Nc3cc(Cl)ccc32)C12CCCCC2
Second compound 0.03 µM
  IC50: 2.24 µM
Second compound 0.0949 µM
  IC50: 1.53 µM
Second compound 0.3 µM
  IC50: > 3 µM
Second compound 0.949 µM
  IC50: 2.43 µM
Second compound 3 µM
  IC50: 0.847 µM
Second compound 0.03 µM, first compound 0.00949 µM
  viability, T/C: 84.7%
Second compound 0.03 µM, first compound 0.03 µM
  viability, T/C: 82.1%
Second compound 0.03 µM, first compound 0.0949 µM
  viability, T/C: 74%
Second compound 0.03 µM, first compound 0.3 µM
  viability, T/C: 62.4%
Second compound 0.03 µM, first compound 0.949 µM
  viability, T/C: 64.3%
Second compound 0.03 µM, first compound 3 µM
  viability, T/C: 45.1%
Second compound 0.0949 µM, first compound 0.00949 µM
  viability, T/C: 88.9%
Second compound 0.0949 µM, first compound 0.03 µM
  viability, T/C: 91.2%
Second compound 0.0949 µM, first compound 0.0949 µM
  viability, T/C: 88.1%
Second compound 0.0949 µM, first compound 0.3 µM
  viability, T/C: 66.5%
Second compound 0.0949 µM, first compound 0.949 µM
  viability, T/C: 60.6%
Second compound 0.0949 µM, first compound 3 µM
  viability, T/C: 39.4%
Second compound 0.3 µM, first compound 0.00949 µM
  viability, T/C: 85.7%
Second compound 0.3 µM, first compound 0.03 µM
  viability, T/C: 95.7%
Second compound 0.3 µM, first compound 0.0949 µM
  viability, T/C: 72.8%
Second compound 0.3 µM, first compound 0.3 µM
  viability, T/C: 73.7%
Second compound 0.3 µM, first compound 0.949 µM
  viability, T/C: 49.5%
Second compound 0.3 µM, first compound 3 µM
  viability, T/C: 58.9%
Second compound 0.949 µM, first compound 0.00949 µM
  viability, T/C: 93.4%
Second compound 0.949 µM, first compound 0.03 µM
  viability, T/C: 82.3%
Second compound 0.949 µM, first compound 0.0949 µM
  viability, T/C: 80.9%
Second compound 0.949 µM, first compound 0.3 µM
  viability, T/C: 68.4%
Second compound 0.949 µM, first compound 0.949 µM
  viability, T/C: 54.7%
Second compound 0.949 µM, first compound 3 µM
  viability, T/C: 49.4%
Second compound 3 µM, first compound 0.00949 µM
  viability, T/C: 88.4%
Second compound 3 µM, first compound 0.03 µM
  viability, T/C: 78.7%
Second compound 3 µM, first compound 0.0949 µM
  viability, T/C: 79.7%
Second compound 3 µM, first compound 0.3 µM
  viability, T/C: 60.8%
Second compound 3 µM, first compound 0.949 µM
  viability, T/C: 45.7%
Second compound 3 µM, first compound 3 µM
  viability, T/C: 50.6%

## C#Cc1c(F)ccc2cc(O)cc(-c3ncc4c(N5CC6CCC(C5)N6)nc(OCC56CCCN5CC(F)C6)nc4c3F)c12 (stereo not given) + Cc1c(S(C)(=O)=O)c(-c2cc(F)cc(N3CCN(c4ccc(NS(=O)(=O)c5ccc(NC(CCN6CCC(C(=O)OCCCP(=O)(O)O)CC6)CSc6ccccc6)c(S(=O)(=O)C(F)(F)F)c5)cc4)CC3)c2)c(-c2ccc(Cl)cc2)n1C(C)C
Second compound 0.1 µM
  IC50: > 10 µM
Second compound 0.316 µM
  IC50: > 10 µM
Second compound 1 µM
  IC50: 7.57 µM
Second compound 3.16 µM
  IC50: 8.82 µM
Second compound 10 µM
  IC50: 1.21 µM
Second compound 0.1 µM, first compound 0.0316 µM
  viability, T/C: 82%
Second compound 0.1 µM, first compound 0.1 µM
  viability, T/C: 83.8%
Second compound 0.1 µM, first compound 0.316 µM
  viability, T/C: 63.6%
Second compound 0.1 µM, first compound 1 µM
  viability, T/C: 64.5%
Second compound 0.1 µM, first compound 3.16 µM
  viability, T/C: 79.7%
Second compound 0.1 µM, first compound 10 µM
  viability, T/C: 71.9%
Second compound 0.316 µM, first compound 0.0316 µM
  viability, T/C: 55%
Second compound 0.316 µM, first compound 0.1 µM
  viability, T/C: 79.5%
Second compound 0.316 µM, first compound 0.316 µM
  viability, T/C: 81.9%
Second compound 0.316 µM, first compound 1 µM
  viability, T/C: 70.1%
Second compound 0.316 µM, first compound 3.16 µM
  viability, T/C: 63.6%
Second compound 0.316 µM, first compound 10 µM
  viability, T/C: 63.5%
Second compound 1 µM, first compound 0.0316 µM
  viability, T/C: 73.3%
Second compound 1 µM, first compound 0.1 µM
  viability, T/C: 65.3%
Second compound 1 µM, first compound 0.316 µM
  viability, T/C: 63.8%
Second compound 1 µM, first compound 1 µM
  viability, T/C: 65.1%
Second compound 1 µM, first compound 3.16 µM
  viability, T/C: 59.2%
Second compound 1 µM, first compound 10 µM
  viability, T/C: 46.9%
Second compound 3.16 µM, first compound 0.0316 µM
  viability, T/C: 51.7%
Second compound 3.16 µM, first compound 0.1 µM
  viability, T/C: 68.3%
Second compound 3.16 µM, first compound 0.316 µM
  viability, T/C: 67.3%
Second compound 3.16 µM, first compound 1 µM
  viability, T/C: 60.7%
Second compound 3.16 µM, first compound 3.16 µM
  viability, T/C: 57.8%
Second compound 3.16 µM, first compound 10 µM
  viability, T/C: 49.1%
Second compound 10 µM, first compound 0.0316 µM
  viability, T/C: 64.8%
Second compound 10 µM, first compound 0.1 µM
  viability, T/C: 58.2%
Second compound 10 µM, first compound 0.316 µM
  viability, T/C: 59.9%
Second compound 10 µM, first compound 1 µM
  viability, T/C: 47%
Second compound 10 µM, first compound 3.16 µM
  viability, T/C: 47.3%
Second compound 10 µM, first compound 10 µM
  viability, T/C: 39.6%
